Tests used:
wild-type mice [1] = assay: DOX treatment in vivo: serial echocardiography; settings: DOX alone or in combination with PepB
Source text: Next, we explored the effect of DOX treatment on cardiac function assessed with echocardiographic measurements at three time points (TO, T1 16 days, T2 42 days) (FIG. 19).

[2] = test system: human cardiomyocytes (HCM); assay: DOX induced mPTP opening in human cardiomyocytes (Calcein-AM); settings: 10 μM DOX alone or with peptide co-administered
[3] = test system: human cardiomyocytes (HCM); assay: DOX induced mitochondrial membrane potential destabilization in human cardiomyocytes; settings: 10 μM DOX alone or with peptide co-administered; four and 22 hours
[4] = test system: human cardiomyocytes (HCM); assay: DOX induced mitochondrial calcium ion overload in human cardiomyocytes; settings: 10 μM DOX alone or with peptide co-administered; four hours
mitochondria = assay: DOX treatment in vivo: mitochondrial OCR (Seahorse mitochondrial stress test)
[5] = test system: human cardiomyocytes (HCM); assay: DOX induced mitochondrial ROS generation in human cardiomyocytes; settings: 10 μM DOX alone or with peptide co-administered; four and 22 hours
wild-type mice [6] = assay: DOX treatment in vivo: cardiac injury markers (cTnI, CK, LDH, BNP); design: species or system mouse; settings: DOX alone or with coadministration of PepB
autophagic flux = assay: DOX treatment in vivo: autophagic flux (LC3, p62, BNIP3 western blot, chloroquine); settings: DOX alone or with PepB
[7] = test system: wild-type mice subjected to myocardial I/R; assay: In vivo murine myocardial I/R: infarct size per area at risk (Evans blue/TTC); design: species or system mouse; settings: 30 min ischemia, 24 hours reperfusion
caspase-3 = assay: Caspase-3 activity in the AAR after I/R; assay type: in vivo, mouse; settings: 1 hour reperfusion
BNIP3 = assay: Mitochondrial BNIP3 level in the AAR after I/R (immunoblot); assay type: in vivo, mouse; settings: 10 minutes reperfusion
recombinant BNIP3 = biological target: T1, recombinant BNIP3 (Mus musculus, UniProt O55003); assay: BNIP3/peptide microarray (truncation, alanine scan, substitution analysis); assay type: binding; settings: alanine scan and substitution analyses of BNIP3 1-20
T1 construct: purchased Cusabio (obtained via Hölzel Diagnostika, Cologne, Germany) CSB-CF002766Mo-50
T1 sequence (O55003 whole entry, the tested form may be a part): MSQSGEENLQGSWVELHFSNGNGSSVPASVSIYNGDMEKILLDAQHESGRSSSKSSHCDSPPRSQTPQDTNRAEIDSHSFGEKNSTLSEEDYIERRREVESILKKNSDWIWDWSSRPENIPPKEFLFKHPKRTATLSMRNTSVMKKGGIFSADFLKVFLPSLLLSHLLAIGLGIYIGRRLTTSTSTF

## COc1cccc2c1C(=O)c1c(O)c3c(c(O)c1C2=O)C[C@@](O)(C(=O)CO)C[C@@H]3O[C@H]1C[C@H](N)[C@H](O)[C@H](C)O1 [DOX, doxorubicin]
wild-type mice [1]
  heart rate: unaffected
[2]
  mPTP opening: activated
[3]
  mitochondrial membrane potential: disrupted
[4]
  mitochondrial calcium ion overload: induced
mitochondria; DOX alone or with PepB
  basal respiration: affected
  maximal respiration: affected
  respiratory reserve capacity (OCR): inhibited
mitochondria; DOX alone or with PepB co-treatment
  Complex II-stimulated respiration: inhibition
[5]
  mitochondrial ROS generation: triggered
wild-type mice [6]
  cardiomyocyte death, cardiac troponin I (cTnl) levels: high cardiac troponin I (cTnl) levels
Autophagic flux
  BNIP3 accumulation: triggered p62 and BNIP3 accumulation
  p62 accumulation: triggered p62 and BNIP3 accumulation

## GRKKRRQRRRPQLDAQHESGRSSSKSSHCDSP [TATBNIP3-20C, control peptide: HIV-1 PTD and 20 amino acids derived from BNIP3 42-61]
[7]; injected 5 minutes before reperfusion
  infarct size compared with vehicle treatment: no difference

## GRKKRRQRRRPQMSQSGEENLQGSWVELHFSN [TAT-BNIP3-20A, HIV-1 PTD and 20 amino acids derived from BNIP3 1-20]
caspase-3
  caspase-3 activity: markedly reduced caspase-3 activity
[7]; peptide injected 5 minutes before reperfusion
  reduction in infarct size relative to treatment with vehicle: 41%
BNIP3
  BNIP3 translocation to the mitochondria: prevented BNIP3 translocation

## VELHFSN
Recombinant BNIP3
  BNIP3 binding (microarray signal): substantially higher luminescence

From patent US12344644B2, “Amelioration and treatment of infarction damage with a polypeptide segement of BNIP3” (priority 2021, dated 2025)
